Data published in PubChem BioAssay (NCI).
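Dose response: 5 concentrations. Exposure: 48 h. Format: 96-well plates. Endpoint: linear interpolation; highest concentration if not reached. At the GI50, growth is halved. TGI: total growth inhibition.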

Key:
Experiment in all cases: growth of human tumour cells (NCI), 48 h
HOP-92 NSCLC = test system: HOP-92 NSCLC
UO-31 renal = test system: UO-31 renal
OVCAR-3 ovarian = test system: OVCAR-3 ovarian
SNB-19 CNS = test system: SNB-19 CNS
M14 melanoma = test system: M14 melanoma
SK-MEL-5 melanoma = test system: SK-MEL-5 melanoma
RPMI-8226 leukemia = test system: RPMI-8226 leukemia
NCI-H226 lung = test system: NCI-H226 lung
HS 578T breast = test system: HS 578T breast
PC-3 prostate = test system: PC-3 prostate

Structure (SMILES) | TGI (HOP-92 NSCLC) | TGI (UO-31 renal) | TGI (OVCAR-3 ovarian) | TGI (SNB-19 CNS) | TGI (M14 melanoma) | TGI (SK-MEL-5 melanoma) | TGI (RPMI-8226 leukemia) | TGI (NCI-H226 lung) | GI50 (HS 578T breast) | TGI (HS 578T breast) | GI50 (HOP-92 NSCLC) | GI50 (UO-31 renal) | GI50 (OVCAR-3 ovarian) | GI50 (SNB-19 CNS) | GI50 (M14 melanoma) | GI50 (SK-MEL-5 melanoma) | GI50 (PC-3 prostate) | TGI (PC-3 prostate) | GI50 (NCI-H226 lung) | GI50 (RPMI-8226 leukemia)
C#CCN(N=O)C(=O)NCCCC(NC(C)=O)C(=O)NCc1ccccc1 (stereo unspecified) | > 100 µM | > 100 µM | > 100 µM | > 100 µM | > 100 µM | > 100 µM | > 100 µM | > 100 µM |  |  |  |  |  |  |  |  |  |  |  | 
O=C(Nc1cccc(Cl)c1)c1cc(N=Nc2ccc([N+](=O)[O-])cc2Cl)ccc1O | 4.12 µM | 6.08 µM | 4.38 µM | > 100 µM | 12.1 µM | 3.81 µM |  | 16.6 µM | 1.95 µM | 7.71 µM | 1.24 µM | 2.16 µM | 1.06 µM | 3.07 µM | 3.18 µM | 1.86 µM | 1.94 µM | 6.36 µM | 2.88 µM | 
CCCCCCCCCCCCCC(=O)OCC1OC(n2cc(F)c(=O)[nH]c2=O)C(N)C(OC(=O)CCCCCCCCCCCCC)C1O (stereo unspecified) | > 100 µM | > 100 µM | > 100 µM | > 100 µM | > 100 µM | > 100 µM | > 100 µM |  |  |  |  |  |  |  |  |  |  |  |  | 
COC(=O)C(C(=O)C(=O)Nc1ccc(OC)cc1[N+](=O)[O-])c1nc2cc(C)c(C)cc2[nH]c1=O (stereo unspecified) | > 100 µM | > 100 µM | > 100 µM | > 100 µM | > 100 µM | > 100 µM |  | > 100 µM |  |  |  |  |  |  |  |  |  |  |  | 
CCOC(=O)NC(=O)c1cn(CCN2CCNCC2)c(=O)[nH]c1=O | > 100 µM |  | > 100 µM | > 100 µM | > 100 µM | > 100 µM | > 100 µM | > 100 µM |  |  |  |  |  |  |  |  |  |  |  | 
NNC(=O)N/N=C1\C(=O)N(c2nccs2)C(=O)C(=O)C1c1nc2ccccc2s1 (stereo unspecified) | > 100 µM | > 100 µM | > 100 µM | > 100 µM | > 100 µM |  | > 100 µM | > 100 µM |  |  |  |  |  |  |  |  |  |  |  | 
COc1cc(CC(C(=O)O)C(=O)O)c(OC)cc1CC(C(=O)O)C(=O)O | > 100 µM | > 100 µM | > 100 µM | > 100 µM | > 100 µM | > 100 µM | > 100 µM | > 100 µM |  |  |  |  |  |  |  |  |  |  |  | 
O=c1c(-c2ccc(O)cc2)coc2cc(OC3OC(CO)C(O)C(O)C3O)cc(O)c12 (stereo unspecified) |  | > 100 µM | > 100 µM | > 100 µM | > 100 µM | > 100 µM | > 100 µM | > 100 µM |  | > 100 µM |  |  |  |  | > 100 µM | > 100 µM |  | > 100 µM |  | > 10 µM
Nc1ccc2c(c1)Oc1c(F)c(F)cc3c(=O)c(C(=O)O)cn-2c13 | 96.9 µM | 93.7 µM | 96.6 µM | > 100 µM | > 100 µM | 47.9 µM | > 100 µM |  |  |  |  |  |  |  |  |  |  |  |  | 
C=C1C(=O)OC2CC3(C)CCCC(C)C3=CC12 (stereo unspecified) | 10.3 µM | 12.5 µM |  | 25.8 µM | 16.1 µM | 4.6 µM |  | 30.3 µM |  | 36.6 µM |  |  |  |  |  |  |  | 39.2 µM |  | 
COc1ccc2c(c1)C(=O)c1c-2n(CCCN)c(=O)c2cc(OC)c(OC)cc12 | 2.34 µM | 2.72 µM | 1.38 µM |  |  | 1.93 µM |  |  | 2.2 µM | 4.81 µM | 0.424 µM | 1.19 µM | 0.203 µM |  |  | 0.283 µM | 0.205 µM | 1.27 µM |  | 
